{"source": "patent US20230398123A1", "about": "“METHODS TO TREAT INFLAMMATORY BOWEL DISEASE” (SHANGHAI PHARMACEUTICALS HOLDING CO., LTD., priority 2021, published 2023)", "key": {"[1]": {"test_system": "IL-6", "assay": "IL-6 release from human ulcerative colitis colon mucosal biopsies (SEB-stimulated, multiplex ELISA)", "assay_type": "cell-based", "details": "about 18 hours, 50 ng/mL SEB"}, "[2]": {"assay": "Bioavailability in rats", "details": "rat, in vivo, oral"}, "[3]": {"assay": "Bioavailability in monkeys", "details": "monkey, in vivo, oral"}, "[4]": {"test_system": "IL-17A", "assay": "IL-17A release from human ulcerative colitis colon mucosal biopsies (multiplex ELISA)", "assay_type": "cell-based", "details": "some UC patients; 10-300 nM"}, "[5]": {"test_system": "TNBS-induced colitis in C57BL/6 mice", "assay": "TNBS-induced colitis in C57BL/6 mice, macroscopic and microscopic colon observations", "assay_type": "in vivo", "details": "for histology of colon sections (H&E): day 3 after TNBS instillation (FIG. 5B)", "excerpt": "Colitis was induced in C57BL/6 mice by instillation of trinitrobenzene sulfonic acid (TNBS) in the colons according to conventional methods. See Antoniou, et al., Ann. Medicine and Surgery, vol. 11, 9-15 (2016).\nFIGS. 5A-B show histological observations of colon sections from C57BL/6 mice. All animals were sacrificed on day 3 after the TNBS instillation to induce colitis as described above, and tissues are visualized by H&E (hematoxylin and eosin) staining.\nThe second panel in FIG. 5B is tissue from a colon instilled with TNBS and treated with 10 mg/kg SPH-X twice daily, administered intraperitoneally."}, "[6]": {"test_system": "TNF-α", "assay": "TNF-α release from human ulcerative colitis colon mucosal biopsies (multiplex ELISA)", "assay_type": "cell-based", "details": "some UC patients; 10-300 nM"}, "[7]": {"test_system": "DNBS-induced colitis in Wistar rats", "assay": "DNBS-induced colitis in Wistar rats", "assay_type": "in vivo", "details": "day 1-7"}, "[8]": {"test_system": "TNF-α", "assay": "Western blot of TNF-α protein in mucosal lysates, TNBS colitis mice", "assay_type": "in vivo", "details": "10 mg/kg twice daily for three days, listed as SPH-X", "protocol": "To assess the effect of SPH-X in this model at the molecular level, colitis was again induced in mice by TNBS instillation (three per treatment group), using ethanol as a control. Test animals were treated with either vehicle (PBS) or SPH-X (10 mg/kg i.p., twice daily) for three days following the TNBS injury and were then sacrificed. Colonic mucosa were isolated from each test animal and used to prepare mRNA. The mRNA was reverse transcribed to provide cDNAs.\nFinally, mucosal lysates from test animals treated as described for the cytokine analysis were prepared and analyzed by Western blot to see how SPH-X affects TNF-α protein levels in the colitis model."}, "[9]": {"details": "Tekturna (aliskiren) label; cited from earlier work"}, "[10]": {"test_system": "TNBS-induced colitis in RenTgMK mice", "details": "TNBS instillation, aliskiren by intraperitoneal injection; cited from earlier work"}, "[11]": {"details": "UC Donor C, Formula (I) malate salt 10-300 nM, Birb 796 1 μM"}}, "note": "“Also recorded” adds a separate entry of the source. Where two headings read alike, the source gives them in different places."}
{"smiles": "Cc1ccc(-n2nc(C(C)(C)C)cc2NC(=O)Nc2ccc(OCCN3CCOCC3)c3ccccc23)cc1", "note": "[Birb 796, reference compound]", "values": [{"measurement": "IL-6 production", "setting": "[1]; [11]", "result": "reduction of IL-6"}]}
{"smiles": "COC(=O)NCCCn1nc([C@@H](C)N(C(=O)C2CNCCO2)C2CC2)c2ccc(C)nc21", "note": "(stereo partly drawn) [Formula (I)]", "values": [{"measurement": "bioavailability", "setting": "[2]", "result": "11.5 to 24.5", "unit": "%"}, {"measurement": "bioavailability", "setting": "[3]", "result": "3.3 to 11.3", "unit": "%"}]}
{"smiles": "COC(=O)NCCCn1nc([C@@H](C)N(C(=O)C2CNCCO2)C2CC2)c2ccc(C)nc21.O=C(O)C[C@H](O)C(=O)O", "note": "(stereo partly drawn) [Formula I malate salt]", "values": [{"measurement": "release of IL-17A", "setting": "[4]", "result": "dose-related reductions"}, {"measurement": "histology of colon sections (H&E)", "setting": "[5]; 5 mg/kg BID, listed as SPH-X", "result": "substantially prevents or treats any injury caused by TNBS instillation; also recorded: treats or prevents such damage"}, {"measurement": "interior of colons dissected longitudinally (bleeding at the distal ends)", "setting": "[5]; 10 mg/kg intraperitoneally after TNBS instillation (FIG. 4B)", "result": "do not show such damage"}, {"measurement": "histology of colon sections (H&E)", "setting": "[5]; 10 mg/kg twice daily intraperitoneally, listed as SPH-X", "result": "substantially protects the colon from injury caused by TNBS; also recorded: treats or prevents such damage"}, {"measurement": "gross morphology of colons", "setting": "[5]; 20 mg/kg BID intraperitoneal, 7 days after TNBS instillation (FIG. 4A), listed as SPH-X", "result": "appear more normal; also recorded: substantially reverses damage caused by TNBS"}, {"measurement": "release of tumor necrosis factor alpha (TNF-α)", "setting": "[6]", "result": "dose-related reductions"}, {"measurement": "colon length", "setting": "[7]; 30 mg/kg q.d. p.o.", "result": "significantly increased colon length"}, {"measurement": "TNF-α protein level (Western blot)", "setting": "[8]", "result": "no TNF-α protein was seen; also recorded: reduces or stops formation of TNF-α"}, {"measurement": "IL-6 production", "setting": "[1]; [11]", "result": "does not show reduction in IL-6"}, {"measurement": "IL-6 production", "setting": "[1]; UC Donors A and B, 10-300 nM", "result": "significant dose-related decreases"}]}
{"smiles": "C[C@@H]1CCN(C(=O)CC#N)C[C@@H]1N(C)c1ncnc2[nH]ccc12", "note": "[Tofacitinib]", "values": [{"measurement": "CW/BW ratio improved by", "setting": "[7]; 30 mg/kg BID p.o.", "result": 9, "unit": "%"}, {"measurement": "CW/CL ratio improved by", "setting": "[7]; 30 mg/kg BID p.o.", "result": 37, "unit": "%"}, {"measurement": "CW/CL/BW ratio improved by", "setting": "[7]; 30 mg/kg BID p.o.", "result": 14, "unit": "%"}]}
{"smiles": "COCCCOc1cc(C[C@@H](C[C@H](N)[C@@H](O)C[C@H](C(=O)NCC(C)(C)C(N)=O)C(C)C)C(C)C)ccc1OC", "note": "[aliskiren]", "values": [{"measurement": "bioavailability", "setting": "[9]", "result": 2.5, "unit": "%"}, {"measurement": "effect on induced colitis", "setting": "[10]", "result": "ameliorated this induced colitis"}]}
